Assay results from publication PMC11133327, “Discovery of potent antimycobacterial agents targeting lumazine synthase (RibH) of Mycobacterium tuberculosis” (Scientific Reports, 2024).

How the values were obtained:
Type in all cases: binding
[1] = biological target: T1, lumazine synthase (RibH) (Mycobacterium tuberculosis, UniProt P9WHE9); test: […]; also riboflavin displacement ([…] at […])
[2] = biological target: T1, lumazine synthase (RibH); test: […]; also riboflavin displacement ([…] at […]); remark: listed apart in the source
[3] = biological target: T1, lumazine synthase (RibH); test: […]; also riboflavin displacement ([…] at […]); remark: listed apart in the source
[4] = biological target: T1, lumazine synthase (RibH); test: biochemical

T1 sequence (P9WHE9 whole entry): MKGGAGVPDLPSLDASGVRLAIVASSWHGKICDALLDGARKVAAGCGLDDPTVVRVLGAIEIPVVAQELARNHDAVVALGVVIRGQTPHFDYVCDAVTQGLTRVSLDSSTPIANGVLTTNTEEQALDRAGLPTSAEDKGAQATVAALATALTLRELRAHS

`O=C1NC(=Nc2ccccc2)SC1=Cc1ccc([N+](=O)[O-])o1` [A10, 5-((5-nitrofuran-2-yl)methylene)-2-(phenylimino)thiazolidin-4-one] was tested, and the Kd [1] was 0.069 µM.

Molecule `O=C1NC(=Nc2ccc(Cl)cc2)SC1=Cc1ccc([N+](=O)[O-])o1` [A39, 2-((4-chlorophenyl)imino)-5-((5-nitrofuran-2-yl)methylene)thiazolidin-4-one] has a Kd [2] of 0.0023 µM.

`Cc1ccc(N=C2NC(=O)C(=Cc3ccc([N+](=O)[O-])o3)S2)cc1` [A52, 5-((5-nitrofuran-2-yl)methylene)-2-(p-tolylimino)thiazolidin-4-one] showed a Kd [3] of 0.048 µM.

For `Cc1cc2nc3c(=O)[nH]c(=O)nc-3n(C[C@H](O)[C@H](O)[C@H](O)CO)c2cc1C` [riboflavin], the Kd [4] was 0.086 µM.
